In JP2008280350A, “ナリンゲニンカルコンを有効成分とするヒスタミン遊離抑制剤又はロイコトリエン遊離抑制剤を含有する医薬品、飲食品又は化粧品” (Kikkoman Corp, priority 2000, dated 2001):
In brackets after ≈: the same amount, converted by molar mass. Where two headings read alike, the source gives them in different places.

How the values were obtained:
rat mast cells [ラット肥満細胞] = assay: Histamine release inhibition from rat mast cells (compound 48/80 induced); assay type: cell-based; settings: for IC50: Rattus norvegicus, Mast cell, 10 min, read-out: IC50 (50% inhibition rate), histamine release
[1] = system: cell suspension prepared as in Example 2 (rat mast cells) [ラット肥満細胞]; assay: Cytotoxicity test (trypan blue cell viability); assay type: cell-based; settings: 37°C, 0, 10, 20, 60, 120 min
[2] = system: mouse ear edema model [マウス耳介浮腫モデル]; assay: Anaphylaxis inhibition in mouse ear edema model; assay type: in vivo; settings: C3H/Hecrj mice, female; oral; 0.8, 0.16, 0.032, 0.0064 mg/kg; 6 doses over 5 days; anti-TNP-IgE, picryl chloride (Fig. 4)
[3] = system: rat macrophages [ラットマクロファージ]; assay: Leukotriene B4 release inhibition from rat macrophages (opsonized zymosan induced); assay type: cell-based; settings: sample added 30 min before zymosan, LTB4 by ELISA (Table 2)

| Structure (SMILES) | IC50 (rat mast cells [ラット肥満細胞]) [µg/mL] | IC50 (rat mast cells [ラット肥満細胞]; compound 48/80 (5 μg/ml) as inducer, 37°C, sample solutions 25-250 μg/ml) [µg/mL] | histamine release inhibitory activity (in words) (rat mast cells [ラット肥満細胞]; compound 48/80 as inducer, compared with ketotifen fumarate (Table 1)) | histamine release inhibitory activity relative to ketotifen fumarate (fold) (rat mast cells [ラット肥満細胞]; from IC50 values, versus ketotifen fumarate) | cytotoxicity (cell viability, number of viable cells) [1] | anaphylaxis inhibitory activity (ear edema) [2] | leukotriene release inhibitory activity [3] |
| --- | --- | --- | --- | --- | --- | --- | --- |
| CN1CCC(=C2c3ccccc3CC(=O)c3sccc32)CC1 [フマル酸ケトチフェン, reference compound] | ~250 (≈ 808 µM) | – | – | – | – | – | – |
| O=C(/C=C/c1ccc(O)cc1)c1c(O)cc(O)cc1O [ナリンゲニンカルコン, 2’4’6’4’−Tetrahydroxychalcone] | – | ~70 (≈ 257 µM) | 公知のヒスタミン遊離抑制剤であるフマル酸ケトチフェンよりも強い、ヒスタミン遊離抑制活性を示した | ~3.5 倍 (fold) | 細胞毒性は見られなかった | 容量依存的なアナフィラキシー抑制活性を示した | 用量依存的に、ロイコトリエン遊離抑制活性を示した |
